{"source": "patent US10045972B2", "about": "“Hydroxypyridone derivatives, pharmaceutical compositions thereof, and their therapeutic use for treating inflammatory, neurodegenerative, or immune-mediated diseases” (BioTheryX, Inc., priority 2014, dated 2018)", "key": {"MO3-13 cells [1]": {"tested_on": "MO3-13 cells", "assay": "Protection of differentiated MO3-13 cells against TNF-α toxicity (Kinetic Apoptosis Kit, live cell fluorescence microscopy)", "format": "cell-based", "conditions": "1 μM ciclopirox with human TNF-α protein 30 ng/mL; images after 1, 15 and 72 hrs, FIG. 3", "description": "The protective effects of ciclopirox on MO3-13 cells against TNF-α toxicity was also determined. MO3-13 cells were grown in 6 well dishes and allowed to adhere overnight. Cells were grown to 70% confluence and then differentiated into oligodendrocyte-like cells by removal of FBS from DMEM medium for 48 hrs. Cells were treated with vehicle (no treatment); human TNF-α protein (30 ng/mL); 1 μM ciclopirox; and a combination of 1 μM ciclopirox and human TNF-α protein (30 ng/mL). Cells were treated with Abcam's Kinetic Apoptosis Kit (Microscopy) prior to live cell fluorescence microscopy imaging using an inverted Zeiss epi-fluorescent microscope. Merged images of phase contrast, green (pSIVA-IANBD) and red (PI) fluorescence were captured after 1 hr, 15 and 72 hrs in cell culture."}, "[2]": {"tested_on": "myelin basic protein (MBP) in MO3-13 cells", "assay": "Induction of myelin basic protein (MBP) production in MO3-13 cells (slot blot, anti-MBP)", "format": "cell-based, human", "description": "Dilutions (0.1 mg/mL) of MO3-13 whole cell extracts were prepared and the proteins (5 μg) from the dilutions were blotted onto nitrocellulose membrane using a slot blotter. The non-protein sites on the blot were blocked with 2% ECL block in PBS-Tween20. Primary […] was diluted in block solution at 300×. The primary antibody was incubated overnight at 4° C. with gentle shaking. The following day the blot was developed using enhanced ECL (GE Healthcare) method. Image of bound antibody were captured using Image Lab software driving a Bio-Rad ChemiDoc XRS+ image capture system."}, "[3]": {"tested_on": "TNF-α secretion from human primary glioblastoma cells (U87)", "assay": "Reduction of TNF-α secretion from U87 cells (slot blot of conditioned media)", "format": "cell-based", "conditions": "compound at 10 μM, 48 hrs, FIG. 1", "description": "TNF-α secretion was measured using U87 cell line. Cells were distributed into 6 well dishes and allowed to adhere overnight. When cells were confluent, they were treated with 6-cyclohexyl-1-hydroxy-4-methyl-1H-pyridine-2-thione A1 at 10 μM in each dish, wherein compound A1 was solubilized in neat DMEM. Cells were exposed to the compound for 48 hrs. Conditioned media was collected and assayed for TNF-α using mouse monoclonal to TNF-α (Abcam 52B83, Cambridge, Mass.). Conditioned media (100 μL) was applied to each slot. The nitrocellulose filter membrane was blocked with ECL advanced block (2% in Tris buffered saline with Tween-20 (0.05%)) for 1 hr with gentle shaking at room temperature. Primary mouse anti-TNF-α (Abcam 52B83) was diluted 1,000× in the blocking solution. Primary antibodies were applied to blots and incubated overnight at 4° C. with gentle shaking. Blots were developed using enhanced ECL (GE Healthcare) method. Images of bound antibodies were captured using Image Lab software driving a Bio-Rad ChemiDoc XRS+ image capture system."}, "MO3-13 cells [4]": {"tested_on": "MO3-13 cells", "assay": "Protection of MO3-13 cells from cuprizone toxicity (phase contrast)", "format": "cell-based, human", "conditions": "compound 5 μM, cuprizone 50 μM, 24 hrs, FIG. 5", "description": "The protective effects of compound A1 on MO3-13 cells from cuprizone toxicity was then determined. […] Cuprizone at a final concentration of 50 μM was solubilized in 100% ethanol was added to selected dishes with and without compound A1 (5 μM) in DMSO."}, "[5]": {"tested_on": "primary mouse oligodendrocytes", "assay": "Protection from cuprizone toxicity, primary mouse oligodendrocytes, MITOTRACKER and immunocytochemistry", "format": "cell-based", "conditions": "MITOTRACKER (red) and beta-catenin (green), FIG. 6", "description": "(§1) Stock MITOTRACKER® (Molecular Probes) was diluted with DMSO to a final concentration of 1 mM. MITOTRACKER® (100 nM) was incubated with the live cells at 37° C. for 30 min. MITOTRACKER® labeling of mitochondria was assessed using a Zeiss inverted microscope. Following MITOTRACKER® treatment, cells were processed for immunocytochemistry. Cells grown on mouse oligodendrocyte extracellular matrix coated cover slips (Celprogen) were fixed with fixing solution containing 0.1% gluteraldehyde, 2% paraformaldehyde, 80 mM Pipes, 5 mM EGTA, pH 8.0, 1 mM MgCl2, and 0.5% Triton-X100. The cells were fixed for 7 min at 37° C. The cells on cover slips were washed and then blocked with 2% bovine serum albumin (BSA) for 1 hr. Primary antibodies were diluted in 2% BSA and incubated on the cover glass for 1 hr in a humid chamber. Following incubation, cover slips were washed and then incubated for 1 hr with species-specific secondary antibodies conjugated with fluorescent label or with biotin. After washing, slides were incubated with streptavidin conjugated with fluorescein fluorescent labels for 40 min. Cover slips were washed again and mounted with DABCO mountant. Fluorescently labeled cells were visualized with a Zeiss epi-fluorescent microscope. Data collected was for MITOTRACKER® (red channel) and beta-catenin (green channel)."}, "[6]": {"tested_on": "primary human oligodendrocytes", "assay": "Protection from cuprizone toxicity, primary human oligodendrocytes, live cell images", "conditions": "24 hrs, FIG. 7", "description": "Cells were weaned off with fetal bovine serum containing differentiation medium (Celprogen) up to 25 days in culture. The cells were exposed to either no treatment (Vehicles=ethanol and DMSO); compound A1 ranging in dosage of 2, 5 and 10 μM; cuprizone (50 μM) (Sigma Aldrich) or a combination of compound A1 and cuprizone (50 μM). Cells were treated for 24 hrs, after which images were captured of live cells using an inverted Zeiss microscope."}, "[7]": {"tested_on": "human oligodendrocytes (MO3-13)", "assay": "TNF-α toxicity on MO3-13 cells and protection (Trypan blue cell counts)", "format": "cell-based", "conditions": "cells exposed to LD50 human TNF-α protein, FIG. 2", "description": "MO3-13 cells were grown in 6 well dishes (100,000 cells per dish) and allowed to adhere overnight. Cells were treated with increasing amounts of human recombinant TNF-α protein (Abcam Ab9642). Cells either treated with increasing amounts of TNF-α protein or with vehicle (PBS) were allowed to grow for additional 24 hrs, after which MO3-13 cells were trypsinized and counted using Trypan blue and a Nebauer hemocytometer. Mean cell counts were plotted graphically against TNF-α concentrations. The LD50 of human TNF-α was determined to be 30 ng/mL on MO3-13 cells. The protective effects of compound A1 on MO3-13 cells that were exposed to LD50 human TNF-α protein were then determined and the results are shown in FIG. 2."}, "[8]": {"tested_on": "primary human oligodendrocytes", "assay": "Protection from cuprizone toxicity, primary human oligodendrocytes, MITOTRACKER and immunocytochemistry", "format": "cell-based", "conditions": "MITOTRACKER (red), green channel, nuclei (blue), FIGS. 8 and 9", "description": "as §1, with “MITOTRACKER®” for “Stock MITOTRACKER® (Molecular Probes) was diluted with DMSO to a final concentration of 1 mM. MITOTRACKER®”, “human” for “mouse”, “MBP” for “beta-catenin”, “channel). Nuclei are labeled with DAPI (blue channel).” for “channel).”"}}, "note": "Entries after “also recorded” stand apart in the source; their conditions may differ."}
{"smiles": "Cc1cc(C2CCCCC2)n(O)c(=O)c1", "note": "[ciclopirox]", "values": [{"measurement": "protection of MO3-13 cells against TNF-α toxicity", "setting": "MO3-13 cells [1]", "value": "protection; also recorded: protective up to 72 hrs"}]}
{"smiles": "Cc1cc(C2CCCCC2)n(O)c(=S)c1", "note": "[compound A1, 6-cyclohexyl-1-hydroxy-4-methyl-1H-pyridine-2-thione]", "values": [{"measurement": "MBP bound by anti-MBP (induction of MBP production)", "setting": "[2]; MO3-13 cells treated with Cpz and compound, p<0.001, FIG. 10", "value": "induction of myelin basic protein (MBP) production; also recorded: significantly higher"}, {"measurement": "MBP bound by anti-MBP", "setting": "[2]; MO3-13 cells treated with compound alone, p<0.001, FIG. 10", "value": "significantly higher"}, {"measurement": "reduction of TNF-α secretion", "setting": "[3]", "value": "reduction of TNF-α secretion"}, {"measurement": "protection of MO3-13 cells against cuprizone toxicity", "setting": "MO3-13 cells [4]", "value": "protection"}, {"measurement": "protection of primary mouse oligodendrocytes against cuprizone toxicity", "setting": "[5]", "value": "protection"}, {"measurement": "protection of primary human oligodendrocytes against cuprizone toxicity", "setting": "[6]; compound 2, 5 and 10 μM with cuprizone 50 μM, live cell images", "value": "protection; also recorded: appears to be protective at various dosings"}, {"measurement": "protection of MO3-13 cells against TNF-α toxicity", "setting": "[7]", "value": "protection"}, {"measurement": "protection of primary human oligodendrocytes against cuprizone toxicity", "setting": "[8]", "value": "protection"}]}
{"smiles": "O=C(NN=C1CCCCC1)C(=O)NN=C1CCCCC1", "note": "[cuprizone, reference compound]", "values": [{"measurement": "anti-MBP antibody binding compared with non-treated (NT) cells", "setting": "[2]; MO3-13 cells treated with Cpz alone, FIG. 10", "value": "reduced anti-MBP antibody binding"}, {"measurement": "toxicity of cuprizone to primary human oligodendrocytes", "setting": "[6]; cuprizone 50 μM alone", "value": "toxic"}]}
